According to ChEMBL document CHEMBL1201862, “PubChem BioAssay data set” (2004):
Activity calls are given as the source filed them.

Legend:
[1] = target: Luciferin 4-monooxygenase (Photinus pyralis, UniProt P08659); experiment: firefly luciferase enzyme inhibitors, dose response, biochemical, luminescence (AID 1891)
[2] = Luminescence Cell-Based Dose Confirmation HTS to Identify Inhibitors of Platelet Dense Granule Release. [Related pubchem assays: 1663 (Primary HTS), 1678 (Summary of Project)]; type: functional
CAAX prenyl protease 2 = target: T1, CAAX prenyl protease 2 (Saccharomyces cerevisiae S288c, UniProt Q03530); type: biochemical
T1 sequence (Q03530 whole entry): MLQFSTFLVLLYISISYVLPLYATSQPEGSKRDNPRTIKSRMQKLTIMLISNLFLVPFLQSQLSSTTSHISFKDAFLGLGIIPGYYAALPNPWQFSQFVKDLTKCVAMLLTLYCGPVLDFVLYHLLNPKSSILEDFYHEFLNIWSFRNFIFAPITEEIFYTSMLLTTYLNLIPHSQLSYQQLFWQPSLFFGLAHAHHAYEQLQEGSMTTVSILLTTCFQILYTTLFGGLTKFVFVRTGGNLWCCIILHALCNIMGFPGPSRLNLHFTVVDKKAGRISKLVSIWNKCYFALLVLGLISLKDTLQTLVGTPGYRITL

Beta-galactosidase = Beta-galactosidase (Escherichia coli, UniProt Q8VNN2); experiment: Dose response counterscreen for EBI2 assay utilizing the enzyme, b-galactosidase.; type: functional
Sequence of Beta-galactosidase (Q8VNN2 whole entry, the tested form may be a part): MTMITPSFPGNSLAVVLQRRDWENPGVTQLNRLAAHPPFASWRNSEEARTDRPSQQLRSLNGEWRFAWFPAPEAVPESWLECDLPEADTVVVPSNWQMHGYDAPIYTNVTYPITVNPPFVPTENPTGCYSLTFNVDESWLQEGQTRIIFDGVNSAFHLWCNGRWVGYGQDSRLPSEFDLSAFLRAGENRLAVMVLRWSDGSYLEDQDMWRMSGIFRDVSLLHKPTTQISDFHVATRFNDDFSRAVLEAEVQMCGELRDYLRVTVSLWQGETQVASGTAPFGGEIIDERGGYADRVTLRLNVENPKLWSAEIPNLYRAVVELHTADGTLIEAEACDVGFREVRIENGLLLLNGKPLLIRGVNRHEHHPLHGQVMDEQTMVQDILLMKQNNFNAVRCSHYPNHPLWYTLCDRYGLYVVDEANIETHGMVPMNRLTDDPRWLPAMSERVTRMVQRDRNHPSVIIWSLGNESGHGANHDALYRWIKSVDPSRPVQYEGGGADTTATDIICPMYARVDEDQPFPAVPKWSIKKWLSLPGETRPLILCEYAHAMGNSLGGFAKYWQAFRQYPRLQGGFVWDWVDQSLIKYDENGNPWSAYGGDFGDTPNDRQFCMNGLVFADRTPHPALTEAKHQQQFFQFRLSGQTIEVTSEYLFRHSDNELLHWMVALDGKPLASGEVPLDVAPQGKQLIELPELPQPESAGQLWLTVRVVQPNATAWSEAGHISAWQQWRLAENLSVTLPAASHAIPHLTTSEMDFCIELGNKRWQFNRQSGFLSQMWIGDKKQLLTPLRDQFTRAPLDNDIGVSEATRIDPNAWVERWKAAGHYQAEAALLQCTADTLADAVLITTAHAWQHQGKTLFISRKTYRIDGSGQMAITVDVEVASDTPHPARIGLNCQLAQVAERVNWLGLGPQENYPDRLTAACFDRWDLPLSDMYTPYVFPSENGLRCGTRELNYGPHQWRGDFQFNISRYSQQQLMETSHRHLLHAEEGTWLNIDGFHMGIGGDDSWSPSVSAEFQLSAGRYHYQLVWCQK

Fatty acid synthase [3] = target: T2, Fatty acid synthase (Homo sapiens, UniProt P49327); experiment: FAS thioesterase domain inhibitors, dose response, biochemical, kinetic fluorescence intensity (AID 624326); type: functional;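 note: rate of fluorescence rise from hydrolysis of a fluorogenic O-methyl fluorescein ester substrate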
T2 sequence (P49327 whole entry, the tested form may be a part): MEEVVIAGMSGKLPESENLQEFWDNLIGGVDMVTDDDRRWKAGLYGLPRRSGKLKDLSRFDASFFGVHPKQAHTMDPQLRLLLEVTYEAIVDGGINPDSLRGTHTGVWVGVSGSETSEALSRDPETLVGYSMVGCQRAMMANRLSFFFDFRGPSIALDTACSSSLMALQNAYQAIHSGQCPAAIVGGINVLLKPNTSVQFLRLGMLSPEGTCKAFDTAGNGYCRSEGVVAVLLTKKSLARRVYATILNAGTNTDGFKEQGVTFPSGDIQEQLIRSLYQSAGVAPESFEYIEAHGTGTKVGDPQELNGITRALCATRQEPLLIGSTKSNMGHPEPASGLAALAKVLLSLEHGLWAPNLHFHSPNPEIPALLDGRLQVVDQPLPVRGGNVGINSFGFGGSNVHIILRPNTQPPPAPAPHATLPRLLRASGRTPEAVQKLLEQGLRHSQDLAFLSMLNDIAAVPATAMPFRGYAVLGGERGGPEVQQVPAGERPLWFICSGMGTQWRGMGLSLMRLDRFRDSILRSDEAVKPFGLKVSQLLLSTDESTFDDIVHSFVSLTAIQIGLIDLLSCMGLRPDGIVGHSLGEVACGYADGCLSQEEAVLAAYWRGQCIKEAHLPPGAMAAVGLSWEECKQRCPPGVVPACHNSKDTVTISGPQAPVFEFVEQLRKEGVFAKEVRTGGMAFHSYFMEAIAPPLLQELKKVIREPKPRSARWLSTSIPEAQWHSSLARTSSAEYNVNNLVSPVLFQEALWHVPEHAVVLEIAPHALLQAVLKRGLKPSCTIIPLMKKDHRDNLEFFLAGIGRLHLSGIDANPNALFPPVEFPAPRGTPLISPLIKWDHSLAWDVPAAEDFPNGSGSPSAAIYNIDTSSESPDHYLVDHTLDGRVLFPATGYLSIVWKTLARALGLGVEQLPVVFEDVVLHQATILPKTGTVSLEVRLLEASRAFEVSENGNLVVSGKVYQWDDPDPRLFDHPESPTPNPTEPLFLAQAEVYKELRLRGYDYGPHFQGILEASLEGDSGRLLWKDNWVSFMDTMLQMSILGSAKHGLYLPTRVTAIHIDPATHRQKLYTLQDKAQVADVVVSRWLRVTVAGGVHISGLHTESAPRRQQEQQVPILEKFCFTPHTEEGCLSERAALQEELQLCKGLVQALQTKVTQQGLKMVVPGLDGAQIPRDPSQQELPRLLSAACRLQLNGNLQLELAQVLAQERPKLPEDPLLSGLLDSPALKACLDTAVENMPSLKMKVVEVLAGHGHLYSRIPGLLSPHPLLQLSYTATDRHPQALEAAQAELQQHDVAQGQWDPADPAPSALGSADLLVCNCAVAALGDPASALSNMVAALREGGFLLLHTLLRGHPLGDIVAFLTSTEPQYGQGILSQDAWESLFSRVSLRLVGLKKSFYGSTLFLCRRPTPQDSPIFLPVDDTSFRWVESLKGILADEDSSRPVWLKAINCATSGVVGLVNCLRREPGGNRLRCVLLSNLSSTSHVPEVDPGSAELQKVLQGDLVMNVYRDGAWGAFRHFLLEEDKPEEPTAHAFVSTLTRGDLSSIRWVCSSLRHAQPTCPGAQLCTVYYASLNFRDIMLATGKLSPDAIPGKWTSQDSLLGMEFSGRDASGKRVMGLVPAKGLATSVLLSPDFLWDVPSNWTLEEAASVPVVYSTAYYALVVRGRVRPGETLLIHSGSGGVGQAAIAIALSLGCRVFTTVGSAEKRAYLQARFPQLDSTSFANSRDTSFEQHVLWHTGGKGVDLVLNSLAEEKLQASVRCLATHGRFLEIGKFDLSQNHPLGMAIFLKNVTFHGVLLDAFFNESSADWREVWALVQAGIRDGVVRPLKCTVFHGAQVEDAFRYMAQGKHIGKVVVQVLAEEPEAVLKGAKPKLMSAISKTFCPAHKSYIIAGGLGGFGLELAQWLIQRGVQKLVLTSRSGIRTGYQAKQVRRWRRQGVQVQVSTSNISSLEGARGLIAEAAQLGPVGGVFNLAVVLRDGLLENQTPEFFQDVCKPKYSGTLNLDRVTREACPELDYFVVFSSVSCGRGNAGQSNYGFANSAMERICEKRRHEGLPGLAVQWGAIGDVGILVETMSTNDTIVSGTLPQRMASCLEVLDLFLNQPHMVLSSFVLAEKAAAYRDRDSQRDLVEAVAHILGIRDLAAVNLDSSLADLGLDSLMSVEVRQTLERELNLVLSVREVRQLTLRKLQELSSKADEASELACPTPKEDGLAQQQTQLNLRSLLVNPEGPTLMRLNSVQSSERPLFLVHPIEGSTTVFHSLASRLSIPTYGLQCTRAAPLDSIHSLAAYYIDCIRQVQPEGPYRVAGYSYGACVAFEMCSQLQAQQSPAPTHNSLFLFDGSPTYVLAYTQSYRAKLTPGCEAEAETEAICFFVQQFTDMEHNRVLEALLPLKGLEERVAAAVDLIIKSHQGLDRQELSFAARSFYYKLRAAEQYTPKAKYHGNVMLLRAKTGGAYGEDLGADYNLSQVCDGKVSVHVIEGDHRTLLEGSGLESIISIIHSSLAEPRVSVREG

Fatty acid synthase [4] = target: T2, Fatty acid synthase; experiment: FAS thioesterase domain inhibitors, dose response, biochemical, endpoint fluorescence intensity, uHTS hits (AID 624327); type: functional;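 note: fluorescence from hydrolysis of an O-methyl fluorescein acyl ester substrate by the enzyme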
HEK293 = experiment: inhibitors of LMP1-driven NF-kB reporter, dose response, cell-based, HEK293, luciferase, cherry-pick (AID 588343); type: functional; settings: Homo sapiens
Protein skinhead-1 = target: T3, Protein skinhead-1 (Caenorhabditis elegans, UniProt P34707); type: functional
T3 sequence (P34707 whole entry): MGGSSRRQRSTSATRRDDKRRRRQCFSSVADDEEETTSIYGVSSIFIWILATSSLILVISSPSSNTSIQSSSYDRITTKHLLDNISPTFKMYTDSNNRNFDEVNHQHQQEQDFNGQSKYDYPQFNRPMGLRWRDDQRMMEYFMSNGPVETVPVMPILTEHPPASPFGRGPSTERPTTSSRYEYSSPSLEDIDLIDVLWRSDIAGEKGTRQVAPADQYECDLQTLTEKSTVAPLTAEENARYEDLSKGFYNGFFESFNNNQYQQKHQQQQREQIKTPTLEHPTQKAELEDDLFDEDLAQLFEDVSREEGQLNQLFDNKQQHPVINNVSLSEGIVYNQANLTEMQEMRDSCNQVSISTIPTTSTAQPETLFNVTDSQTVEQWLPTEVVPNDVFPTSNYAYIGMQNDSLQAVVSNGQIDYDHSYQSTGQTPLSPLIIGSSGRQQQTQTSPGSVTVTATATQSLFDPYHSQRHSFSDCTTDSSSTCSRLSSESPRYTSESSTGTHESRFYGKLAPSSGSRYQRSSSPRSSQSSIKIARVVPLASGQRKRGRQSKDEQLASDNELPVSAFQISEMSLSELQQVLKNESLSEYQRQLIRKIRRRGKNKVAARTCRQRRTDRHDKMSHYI

[5] = target: T4, Heat shock factor protein 1 (Mus musculus, UniProt P38532); experiment: inhibition of MG132-induced HSE-luciferase signal, confirmation, cell-based, NIH3T3, luminescence, dose retest (AID 2382); type: functional;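 note: NIH3T3 fibroblasts with HSF1-driven luciferase reporter stressed by proteasome inhibitor MG132; luminescence from HSF1-driven luciferase expression after 8 hours of MG132 stress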
T4 sequence (P38532 whole entry): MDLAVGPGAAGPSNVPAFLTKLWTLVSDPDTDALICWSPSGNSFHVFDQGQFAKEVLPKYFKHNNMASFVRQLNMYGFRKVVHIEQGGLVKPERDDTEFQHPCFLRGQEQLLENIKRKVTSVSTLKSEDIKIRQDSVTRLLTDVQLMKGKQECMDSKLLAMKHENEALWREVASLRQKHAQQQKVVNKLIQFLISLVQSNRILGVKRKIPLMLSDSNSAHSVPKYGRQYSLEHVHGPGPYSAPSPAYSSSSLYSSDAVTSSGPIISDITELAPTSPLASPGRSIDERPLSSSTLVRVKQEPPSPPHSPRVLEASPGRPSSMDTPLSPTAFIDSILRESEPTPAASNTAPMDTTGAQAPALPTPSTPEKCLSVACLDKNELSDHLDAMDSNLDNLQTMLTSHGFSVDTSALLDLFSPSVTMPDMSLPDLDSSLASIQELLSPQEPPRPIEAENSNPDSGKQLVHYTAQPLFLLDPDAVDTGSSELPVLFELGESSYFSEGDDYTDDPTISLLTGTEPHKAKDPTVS

[6] = target: T5, Sentrin-specific protease 8 (Homo sapiens, UniProt Q96LD8); type: functional;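 note: luminescence read-out of SENP8 inhibition, dose-response confirmation following an ultra-high-throughput screen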
T5 sequence (Q96LD8 whole entry): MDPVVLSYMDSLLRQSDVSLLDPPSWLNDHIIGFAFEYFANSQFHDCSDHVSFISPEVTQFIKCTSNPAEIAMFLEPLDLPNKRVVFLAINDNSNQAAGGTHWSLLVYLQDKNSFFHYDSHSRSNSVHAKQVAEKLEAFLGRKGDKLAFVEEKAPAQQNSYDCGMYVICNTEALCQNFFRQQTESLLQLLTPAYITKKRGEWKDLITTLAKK

[7] = target: T6, Sentrin-specific protease 7 (Homo sapiens, UniProt Q9BQF6); type: functional;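 note: Luminescence-based dose-response confirmation of ultra-high-throughput screening hits, measuring inhibition of SENP7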
T6 sequence (Q9BQF6 whole entry): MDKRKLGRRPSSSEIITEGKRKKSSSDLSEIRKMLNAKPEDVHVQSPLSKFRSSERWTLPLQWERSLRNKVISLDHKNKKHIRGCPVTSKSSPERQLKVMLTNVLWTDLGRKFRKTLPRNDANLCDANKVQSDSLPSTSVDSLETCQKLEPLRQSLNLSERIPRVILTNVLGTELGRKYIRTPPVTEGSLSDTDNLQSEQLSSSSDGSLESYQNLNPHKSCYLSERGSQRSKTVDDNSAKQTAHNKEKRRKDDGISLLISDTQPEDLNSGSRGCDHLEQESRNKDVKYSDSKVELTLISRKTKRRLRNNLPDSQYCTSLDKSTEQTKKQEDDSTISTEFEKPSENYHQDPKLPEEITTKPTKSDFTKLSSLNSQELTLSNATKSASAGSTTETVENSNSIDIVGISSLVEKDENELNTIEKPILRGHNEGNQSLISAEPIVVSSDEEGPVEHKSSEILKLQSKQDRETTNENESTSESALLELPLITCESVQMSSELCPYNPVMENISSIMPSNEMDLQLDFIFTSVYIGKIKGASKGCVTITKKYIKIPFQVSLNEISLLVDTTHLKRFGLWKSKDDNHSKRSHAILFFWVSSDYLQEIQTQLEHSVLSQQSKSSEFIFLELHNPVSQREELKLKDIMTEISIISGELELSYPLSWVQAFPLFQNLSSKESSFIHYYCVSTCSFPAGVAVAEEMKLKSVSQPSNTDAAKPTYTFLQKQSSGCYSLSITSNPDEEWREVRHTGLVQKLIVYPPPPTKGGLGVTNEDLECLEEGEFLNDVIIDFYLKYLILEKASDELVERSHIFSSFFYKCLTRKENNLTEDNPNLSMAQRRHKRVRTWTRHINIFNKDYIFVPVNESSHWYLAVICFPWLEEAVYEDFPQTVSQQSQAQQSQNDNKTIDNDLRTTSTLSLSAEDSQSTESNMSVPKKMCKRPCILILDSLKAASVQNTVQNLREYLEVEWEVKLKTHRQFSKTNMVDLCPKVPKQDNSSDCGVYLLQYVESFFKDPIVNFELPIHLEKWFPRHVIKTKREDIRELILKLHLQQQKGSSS

Caspase-3 = target: T7, Caspase-3 (Homo sapiens, UniProt P42574); type: functional;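 note: Dose-response selectivity test against caspase-3 for candidate inhibitors of sentrin-specific proteases (SENPs)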
T7 sequence (P42574 whole entry): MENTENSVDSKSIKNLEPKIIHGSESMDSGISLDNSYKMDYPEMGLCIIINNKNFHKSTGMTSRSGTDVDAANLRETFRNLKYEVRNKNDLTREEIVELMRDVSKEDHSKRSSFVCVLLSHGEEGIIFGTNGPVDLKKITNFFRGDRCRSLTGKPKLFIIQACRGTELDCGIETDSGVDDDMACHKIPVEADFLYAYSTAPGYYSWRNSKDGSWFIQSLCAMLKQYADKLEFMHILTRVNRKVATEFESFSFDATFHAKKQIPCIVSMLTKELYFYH

[8] = target: T8, Sentrin-specific protease 6 (Homo sapiens, UniProt Q9GZR1); type: functional;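 note: Luminescence-based dose-response confirmatory assay of SENP6 inhibition, following up an ultra-high-throughput screen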
T8 sequence (Q9GZR1 whole entry): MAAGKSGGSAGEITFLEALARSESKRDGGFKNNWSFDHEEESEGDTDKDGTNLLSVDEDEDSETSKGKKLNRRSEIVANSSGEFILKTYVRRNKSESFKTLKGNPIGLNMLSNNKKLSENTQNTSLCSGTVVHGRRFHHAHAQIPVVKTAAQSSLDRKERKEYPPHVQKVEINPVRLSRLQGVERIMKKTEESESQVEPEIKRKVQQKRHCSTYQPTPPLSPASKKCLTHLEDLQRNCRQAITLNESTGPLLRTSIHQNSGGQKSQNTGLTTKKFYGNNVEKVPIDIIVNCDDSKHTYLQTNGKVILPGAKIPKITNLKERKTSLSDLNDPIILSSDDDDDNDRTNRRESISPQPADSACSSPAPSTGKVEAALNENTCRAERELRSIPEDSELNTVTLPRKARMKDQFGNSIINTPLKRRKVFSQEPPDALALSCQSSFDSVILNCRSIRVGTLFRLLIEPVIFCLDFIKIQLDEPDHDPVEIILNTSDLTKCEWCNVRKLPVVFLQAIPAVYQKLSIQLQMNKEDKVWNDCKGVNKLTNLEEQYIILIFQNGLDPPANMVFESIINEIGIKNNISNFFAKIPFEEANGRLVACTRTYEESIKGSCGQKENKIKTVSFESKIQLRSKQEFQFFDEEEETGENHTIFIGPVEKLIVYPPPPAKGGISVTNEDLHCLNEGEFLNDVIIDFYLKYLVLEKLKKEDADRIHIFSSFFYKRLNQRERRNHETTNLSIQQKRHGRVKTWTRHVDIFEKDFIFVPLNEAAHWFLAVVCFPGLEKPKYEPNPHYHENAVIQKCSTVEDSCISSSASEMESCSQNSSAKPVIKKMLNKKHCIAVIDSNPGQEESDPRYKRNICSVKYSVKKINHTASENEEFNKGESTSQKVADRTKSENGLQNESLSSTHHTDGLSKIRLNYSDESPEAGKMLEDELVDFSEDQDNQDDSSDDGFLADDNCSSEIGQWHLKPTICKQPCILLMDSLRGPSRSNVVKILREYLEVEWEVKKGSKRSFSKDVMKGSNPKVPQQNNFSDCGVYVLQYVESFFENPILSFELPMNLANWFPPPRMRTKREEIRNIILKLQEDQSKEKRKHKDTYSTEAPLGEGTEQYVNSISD

[9] = HepG2 cell cytotoxicity, dose response, cytotoxicity control, plate reader, cherry-pick, antagonist series (AID 743416); type: functional, cell-based
cells = type: functional

Sequence of Luciferin 4-monooxygenase (P08659 whole entry): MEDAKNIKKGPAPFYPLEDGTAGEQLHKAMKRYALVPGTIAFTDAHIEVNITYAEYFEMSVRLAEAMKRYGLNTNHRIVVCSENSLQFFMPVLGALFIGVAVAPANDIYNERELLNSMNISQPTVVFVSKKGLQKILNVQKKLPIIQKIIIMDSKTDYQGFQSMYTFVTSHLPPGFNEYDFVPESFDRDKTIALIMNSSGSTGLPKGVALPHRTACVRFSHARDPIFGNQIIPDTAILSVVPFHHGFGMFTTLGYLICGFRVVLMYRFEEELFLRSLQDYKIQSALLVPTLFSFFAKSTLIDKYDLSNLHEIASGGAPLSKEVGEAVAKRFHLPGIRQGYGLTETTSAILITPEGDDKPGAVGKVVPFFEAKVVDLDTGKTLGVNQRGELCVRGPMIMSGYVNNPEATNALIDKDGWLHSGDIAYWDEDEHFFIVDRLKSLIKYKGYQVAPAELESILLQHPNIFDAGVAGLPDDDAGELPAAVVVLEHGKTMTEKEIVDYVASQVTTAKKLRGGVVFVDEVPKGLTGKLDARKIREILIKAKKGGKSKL

Cc1ccc(C)c(-c2nnc(NC(=O)CS(=O)(=O)c3ccccc3)o2)c1
EC50 [1]: > 112 µM (not active) | EC50 [2]: > 112 µM (not active)

O=C(c1cnc2n(c1=O)CCS2)N1CCN(C(c2ccccc2)c2ccc(Cl)cc2)CC1 (configuration not stated)
AC50 (CAAX prenyl protease 2): 8.81 µM (active)

COc1cc(/C=C(\C#N)C(=O)Nc2ccc3ccccc3c2)c([N+](=O)[O-])cc1OC
IC50 (Beta-galactosidase): > 80 µM (inactive)

CC(C)(C)CNC(=O)c1cccc2c1C(=O)c1ccc(N3CCCC3)cc1S2(=O)=O
IC50 (Beta-galactosidase): > 80 µM (inactive)

C[C@@H]1CN([C@H](C)CO)S(=O)(=O)c2ccc(C#Cc3ccccc3F)cc2O[C@@H]1CN(C)C(=O)Cc1ccccc1
IC50 (Fatty acid synthase [3]): 3.79 µM (active) | IC50 (Fatty acid synthase [4]): 3.71 µM (active) | IC50 (Beta-galactosidase): > 80 µM (inactive)

COc1ccc(NC(=O)c2sc(SCc3ccccc3)nc2N)cc1
IC50 (Beta-galactosidase): > 80 µM (inactive)

Cc1[nH]c2nc(SCC(=O)c3ccccc3)nc-2cc1Br
EC50 [1]: > 112 µM (not active) | EC50 [2]: > 112 µM (not active)

O=C(/C=C/Nc1ccc(F)cc1Br)c1ccccc1
EC50 [1]: 0.283 µM (active) | AC50 (HEK293): 1.38 µM (active) | EC50 [2]: 3.37 µM (active) | IC50 (Protein skinhead-1): > 100 µM (inactive) | EC50 [5]: < 0.16 µM (active)

O=C(c1ccccc1)C1CCN(C(=O)c2ccc(Cl)cc2)CC1
IC50 (Beta-galactosidase): > 80 µM (inactive)

O=C1/C(=C\c2ccc(O)cc2)SC(=S)N1Cc1ccccc1
IC50 [6]: 9.59 µM (active) | IC50 [7]: 16 µM (active) | IC50 (Caspase-3): 41 µM (active) | IC50 [8]: 8 µM (active)

Cc1ccc(CNS(=O)(=O)c2ccc3c(c2)CCN3C(=O)CCCC(=O)O)cc1
AC50 [9]: > 52 µM (inactive)

CN1/C(=C\C(=O)COC(=O)c2ccc([N+](=O)[O-])o2)C(C)(C)c2ccccc21
EC50 [1]: > 112 µM (not active) | IC50 (cells): 1.22 µM (active) | EC50 [2]: > 112 µM (not active)

CCOc1ccc(/C=N/NC(=O)c2ccc(Cn3cc(Br)cn3)o2)cc1
IC50 [6]: 56.5 µM (active) | IC50 [7]: 13.2 µM (active) | IC50 (Caspase-3): 35.4 µM (active) | IC50 [8]: 52.7 µM (active)

CN(C)CCN(C(=O)c1ccc2ccccc2c1)c1nc2ccc(Br)cc2s1
AC50 (CAAX prenyl protease 2): 4.77 µM (active)

COc1cccc(NC(=O)Cn2c3ccc(F)cc3c3nc4n(c(=O)c32)CCCS4)c1
IC50 (Beta-galactosidase): > 80 µM (inactive)

CC(=O)Oc1ccc(/C=C/c2nc3ccccc3c(=O)o2)cc1
EC50 [1]: 0.359 µM (active) | EC50 [2]: 0.333 µM (active)

O=C(CCCN1C(=O)/C(=C/c2cccc(Br)c2)SC1=S)N1CCOCC1
IC50 [6]: 78.1 µM (active) | IC50 [7]: 45.6 µM (active) | IC50 (Caspase-3): > 100 µM (inactive) | IC50 [8]: 79.6 µM (active)
